In patent US8217042B2, “Pyridopyrazines and their use as modulators of kinases” (Zentaris GmbH, priority 2005, dated 2012):

Key:
[1] = system: Hct116; assay: XTT assay, anti-proliferative action, Hct116; format: cell-based; settings: Homo sapiens, HCT-116, 45 h, Hct116 cells, 45 h incubation
Experimental: The principle of this test is based on the intracellular reduction of the tetrazolium dye XTT (sodium 3′-[1-(phenylaminocarbonyl)-3,4-tetrazolium]bis(4-methoxy-6-nitro)benzenenesulphonic acid, Sigma) to a formazan dye by mitochondrial dehydrogenases.
The dye is formed only by metabolically active cells; its photometrically measurable intensity is a quantitative indicator for the presence of living cells. The reduction in the dye formation as a result of incubation of the cells with substances serves as a parameter for the anti-proliferative action.
The tumour cell lines (ATCC) were seeded in 96-well microtitre plates in a defined cell count (5000 cells/well for BxPC3 and Hct116; 10 000 cells/well for MDA MB468), and then incubated overnight in an incubator at 37° C., 5% CO2 and 95% air humidity. The test substances were made up as stock solutions (10 mM) in DMSO. […] The cell plates were then incubated for 45 h in an incubator at 37° C., 5% CO2 and 95% air humidity.
For the detection reaction, the XTT substrate was admixed with PMS (N-methyldibenzopyrazine methylsulphate, Sigma) and added to the cells, so as to result in a final concentration of 325 μg of XTT/ml and 2.5 μg PMS/ml. The mixture was then incubated for 3 h at 37° C., 95% air humidity. Subsequently the formazan salt formed by cellular dehydrogenases was quantified at an absorption of 490 nm.
The evaluation of the % inhibition values was done by means of the following formula from the values for the optical densities measured in each case at 490 nm:
The controls were determined 8 times each, the substance samples twice each. 0% control contained no cells; the 100% control contained no test substance. The EC50 values were determined with GraphPadPrism.

[2] = target: T1, Erk2; assay: Cell-free kinase assay (ALPHA technology), Erk2-ALPHA; format: biochemical; settings: 10 μM ATP, recombinant human kinase
T1 construct: in some cases as full-length kinases, in some cases as truncated fragments; purchased Upstate 14-173
T1 sequence (P63085 whole entry, the tested form may be a part): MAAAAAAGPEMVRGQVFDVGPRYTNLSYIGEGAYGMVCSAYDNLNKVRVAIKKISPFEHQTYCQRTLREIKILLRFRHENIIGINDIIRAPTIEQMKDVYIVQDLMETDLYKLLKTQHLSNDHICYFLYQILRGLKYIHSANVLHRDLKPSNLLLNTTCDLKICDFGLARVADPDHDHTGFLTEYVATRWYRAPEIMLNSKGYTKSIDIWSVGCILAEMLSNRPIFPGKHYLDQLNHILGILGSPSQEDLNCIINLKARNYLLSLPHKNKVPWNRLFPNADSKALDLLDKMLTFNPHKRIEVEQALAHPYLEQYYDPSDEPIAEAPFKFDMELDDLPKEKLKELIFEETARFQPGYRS
Experimental: The inhibitory effect of the inventive compounds was tested on various human serine/threonine kinases, tyrosine kinases and lipid kinases in enzymatic assays. Recombinant human kinases, for example Erk2, PI3Kalpha, -beta, -gamma, -delta, p38alpha, p38gamma, Jnk1, Jnk2 and others were used, in some cases as full-length kinases, in some cases as truncated fragments—but at least consisting of the functional kinase domains. The commercial kinase proteins (Proqinase, Upstate) were used as recombinant fusion proteins with GST (glutathione S-transferase) tag or His tag. Depending on the substrate type, the different kinase reactions were quantified by means of suitable ALPHA™ beads (PerkinElmer).
The substrate testing on the Erk assay is described in detail below. Selected test results of the Erk2, PI3Kalpha assays are cited below. […] The kinase reaction was then stopped by adding 10 μl of the ALPHA bead mix (10 μg/ml, #6760617/PerkinElmer), pre-incubated with anti-phospho MBP antibody (320 μM, #05-429/Upstate), in 25 mM Tris, 200 mM NaCl, 100 mM EDTA and 0.3% BSA, and left to stand overnight. • b) PI3K-ALPHAs (e.g. PI3Kalpha): The test substance, 1 ng of PI3Kalpha (#14-602, Upstate), 100 μM ATP and 20 μM PIP2 substrate (#P4508, Echelon) on a 384-well Optiplate (Perkin Elmer) for 1 h in 50 mM Hepes, 50 mM NaCl, 5 mM MgCl2, 0.05% Chaps, 5 mM DTT at pH 7.4. Subsequently, the kinase reaction was stopped by adding the ALPHA bead mix (10 μg/ml, #6760603/PerkinElmer), preincubated with 1 nM GST:Grp1 fusion protein (Upstate) and 15 nM biotinylated PIP3 (#C-39B6/Echelon) in 50 mM Hepes, 50 mM NaCl, 50 mM EDTA and 0.1% BSA, and left to stand overnight.
The fluorescence was detected the next morning in a Fusion™ alpha instrument (Perkin Elmer).
The calculation of % inhibition values per substance concentration was done by means of the following formula from the raw data determined in the Fusion™ alpha:
The controls were each determined 8 times, the substance samples each twice. 0% control contained neither any ATP nor any substrate; the 100% control contained no test substance. The IC50 values were determined with GraphPadPrism.

[3] = system: Erk →pRsk; assay: Cellular substrate phosphorylation (Western blotting), Erk substrate Rsk1; format: cell-based; settings: 5 h, tumour cell line
Experimental: This method enables a statement of whether the kinase modulator investigated achieves the desired effect in a cellular context too, i.e., in this case, a substrate protein downstream of the target kinase is examined for its phosphorylation status. To this end, the cells incubated with substance are lysed and the overall protein is separated on a reducing polyacrylamide gel. Subsequently, the proteins are transferred by means of Western blotting to a PVDF membrane and the substrate bands sought are made visible with specific antibodies and a suitable detection method. The substrate proteins downstream of the target kinases are detected simultaneously with an anti-phospho antibody which is specific in each case and simultaneously a total antibody which recognizes the substrate total protein. The duplex technology of the ODYSSEY imager (LiCOR) enables this simultaneous measurement. The intensity of the total substrate bands is employed to normalize and quantify the phosphorylation inhibition or activation.
Suitable tumour cell lines (e.g. BxPC3, Hct116 or MDA MB468) were seeded into 6-well microtitre plates in a defined cell count (e.g. 350 000 cells/well for BxPC3 and Hct116) in the particular standard complete media and then incubated overnight in an incubator at 37° C., 5% CO2 and 95% air humidity. The cells were then incubated further for a further 24 h under reduced-serum conditions, i.e. in the particular medium except at only 0.25% serum. The test substances were made up as stock solutions (10 mM) in DMSO and incubated with the cells at final concentrations of 5, 15.8 and 50 μM for 5 h. This was followed by cell lysis in 25 mM Tris, 150 mM NaCl, 10 mM sodium pyrophosphate, 2 mM EGTA, 25 mM beta-glycerophosphate, 25 mM NaF, 10% glycerol, 0.75% NP-40, 100 μM NaVO4 buffer. After protein quantification by means of BCA (bicinchonic acid protein assay kit, Sigma) assay, amounts of protein of about 20 μg per track were separated on a Lammli polyacrylamide gel and then transferred onto a PVDF membrane (Millipore) by means of semi-dry Western blotting at 0.8 mA/cm^2 for 1 h. This was followed by prehybridization of the membrane for 1 hour in I-block reagent (Applied Biosystems) and overnight incubation with the specific antibodies. To determine the Erk and PI3K inhibition, the next substrates Rsk1 downstream were detected with the total antibody (Rsk #sc-231g C-21, Santa Cruz) and the phospho antibody (Phospho-p90RSK (S380) #9341, NEB Cell Signalling) and Akt with the total antibody (Akt1 #sc-20, Santa Cruz) and the phospho antibody (Phospho-Akt (Ser 473) #9271, NEB Cell Signaling). After the membrane had been washed, the secondary antibodies were incubated with anti-rabbit IR Dye 800 (#611-732-127, Rockland) for the phospho antibody and anti-goat Alexa Fluor 680 (#A-21081, […]) for the total protein antibody. After incubation for 30 min at room temperature in the dark, the hybridization of the detection antibody was detected on the membrane by scanning in an ODYSSEY imager (LiCOR).

EC50 [1]: ~20 µM
IC50 [2]: 9.6 µM
SMILES: CCNC(=O)Nc1ccc2ncc(Nc3ccc(C)c(NS(C)(=O)=O)c3)nc2n1 [Compound 49, N-{5-[6-(3-Ethylurea)pyrido[2,3-b]pyrazin-3-ylamino]-2-methylphenyl}methanesulphonamide]
inhibition at 50 µM [3]: 0%
